Paper PMC10185773, “Interactions of the protein tyrosine phosphatase PTPN3 with viral and cellular partners through its PDZ domain: insights into structural determinants and phosphatase activity” (Frontiers in Molecular Biosciences, 2023)
Read-outs that look alike come from different tables or passages of the source.

Columns and labels:
[1] = biological target: HBc PBM (Hepatitis B virus) (UniProt P03149); conditions: cited from earlier work
[2] = biological target: HPV16 E6 PBM (Human papillomavirus type 16) (UniProt P03126); conditions: cited from earlier work
p38γ PBM (Homo sapiens) = p38γ PBM (Homo sapiens) (UniProt P53778); conditions: cited from earlier work
[3] = biological target: HPV18 E6 PBM (Human papillomavirus type 18) (UniProt P06463); conditions: cited from earlier work
PTPN3-PDZ [4] = biological target: T1, PTPN3-PDZ (Homo sapiens, UniProt P26045); assay: Holdup assay (binding intensity), PTPN3-PDZ; conditions: biotinylated 12-mer peptide on resin, MBP-PDZ bacterial extract, capillary electrophoresis, mean BI, significance threshold 0.2
T1 construct: GST (N, cleaved yes); made in house; host or cells: E. coli BL21 Star (DE3)
T1 sequence (P26045 510-582 limits assumed): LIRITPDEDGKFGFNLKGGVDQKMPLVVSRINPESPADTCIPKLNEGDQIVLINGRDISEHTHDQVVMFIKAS
Procedure: (§1) The holdup assay was conducted against the biotinylated peptide PBM-p38γ (Supplementary Material S1) following previously established protocols ([Vincentelli et al., 2015]; [Duhoo et al., 2019]) with some slight modifications. In summary, we utilized a high-throughput technique to measure the affinities and specificities of motifs in a library of human PDZ domains, which involved the use of both robotic and microfluidic methodologies. To achieve this, we expressed 266 PDZ domains fused with the Maltose Binding Protein (MBP) tag, which constituted 97% of the human PDZome. Bacterial extracts containing overexpressed PDZ domains were incubated with PBM peptide-coated resins in 96-well plates, then filtered and evaluated using microfluidic capillary electrophoresis to determine binding intensities (BIs) in the flowthroughs. […]
(§2) Then, we investigated the specificity profiles of the PBMs of the PTPN3-PDZ ligands p38γ and of HBc against the full human PDZome (library that contains all the known human PDZ domains) ([Duhoo et al., 2019]). […] 12-mer peptides encompassing the protein C-terminal PBM sequences linked to a biotinyl group are used as baits to quantify the interaction between PBMs and the library of human PDZ domains expressed in Escherichia coli ([Duhoo et al., 2019]). […]

[5] = test system: library of human PDZ domains (266 PDZ domains, 97% of the human PDZome); assay: Holdup assay, PDZome-binding profile; conditions: holdup against human PDZome; about 10% of the PDZome
Procedure: as §1, §2

PTPN4-PDZ [6] = assay: Holdup assay (binding intensity), PTPN4-PDZ; parameters: species or system human; conditions: biotinylated 12-mer peptide on resin, MBP-PDZ bacterial extract, capillary electrophoresis, mean BI, significance threshold 0.2
Procedure: as §1, §2

PTPN3-Bidomain = biological target: T2, PTPN3-Bidomain (Homo sapiens, UniProt P26045); assay: pNPP hydrolysis by PTPN3-Bidomain pre-incubated with PBM peptide; format: biochemical; conditions: Bidomain 75 nM + large excess of peptide (molar ratio 600:1, 30 min at 25°C), pNPP 19 µM-10 mM, pH 7.5, 25°C, A410, three independent experiments; for Km: substrate-inhibition Michaelis-Menten fit
T2 construct: 6xHis (N); made in house; host or cells: E. coli BL21 Star (DE3)
T2 sequence (P26045 488-913): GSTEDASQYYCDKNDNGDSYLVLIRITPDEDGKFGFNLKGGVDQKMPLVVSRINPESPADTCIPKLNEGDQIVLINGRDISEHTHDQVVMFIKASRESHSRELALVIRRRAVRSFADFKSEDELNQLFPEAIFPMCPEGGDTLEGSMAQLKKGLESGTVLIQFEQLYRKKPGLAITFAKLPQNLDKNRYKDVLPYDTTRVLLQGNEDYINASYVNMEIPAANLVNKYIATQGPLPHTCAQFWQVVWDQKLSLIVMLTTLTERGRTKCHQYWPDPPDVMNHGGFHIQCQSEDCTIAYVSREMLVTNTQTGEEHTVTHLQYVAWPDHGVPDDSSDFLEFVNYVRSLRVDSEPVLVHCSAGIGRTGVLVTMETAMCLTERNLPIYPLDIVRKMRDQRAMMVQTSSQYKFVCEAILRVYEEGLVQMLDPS
Procedure: We performed enzymatic assays on the constructs PTPN3-Bidomain, PTPN3-linker-PTP, PTPN3-shLinker-PTP (short linker, missing 23 residues) and PTPN3-PDZ (Figure 1). In all experiments, the phosphatase activity was assessed using the synthetic nonspecific phosphatase substrate p-nitrophenyl phosphate (pNPP), whose hydrolysis into p-nitrophenol (pNP) can be followed spectrophotometrically at 410 nm. Reactions were performed in 50 mM Tris-HCl, pH 7.5, 1 mM MgCl2, 150 mM NaCl, 0.5 mM.
TCEP The initial reaction rates were measured independently at pH 7.5 and at 25°C. pNPP was assayed for concentrations ranging from 19 μM to 10 mM at an enzyme concentration of 75 nM. […] The experimental data was therefore fitted to a corrected Michaelis-Menten equation to take into consideration this inhibition.
The equation is: Vo = Vmax [S]/(Km + [S] + [S]2/Ki) with Vo the initial rate, Vmax the maximal rate, [S] the substrate concentration and Ki the inhibition constant.
Phosphatase activity was measured by following the hydrolysis of pNPP as previously described ([Maisonneuve et al., 2014]). Absorbances were measured continuously at 410 nm for pNP, using a Thermo Scientific UV spectrometer equilibrated at 25°C. Initial linear reaction rates were calculated during a 60 s reaction. The kcat and KM constants were deduced from fitting the Michaelis-Menten equation with the Prism software. The data are representative of three independent experiments.
A large excess (molar ratio 600:1) of each peptide was incubated with PTPN3-Bidomain for 30’ at 25°C, and the initial rates of the dephosphorylation reaction were measured in the same range of pNPP concentrations.
To assess whether the PBM binding to the PDZ domain releases the catalytic inhibition as observed for PTPN4 ([Maisonneuve et al., 2014]), we added the PBM peptides of the PTPN3 cellular partners, PBM-TACE and PBM-p38γ, and the viral peptides PBM-16E6, PBM-HBc, in large excess ([…]) to PTPN3-Bidomain (Figure 7A; Table 3). For all peptides, a 2-fold decrease in kcat compared to PTPN3-linker-PTP is measured, as in the unbound Bidomain, while the KM remained unaffected (Table 3). Thus, we concluded that the PBM binding has no effect on PTPN3 catalytic activity in our conditions. Accordingly, the specificity constants (kcat/KM) of the complexed Bidomain are in the same range in comparison with the values of PTPN3-Bidomain (Table 3).

[7] = test system: library of human PDZ domains (266 PDZ domains, 97% of the human PDZome); conditions: holdup against human PDZome; ref Genera et al., 2021; cited from earlier work
Text: (§3) We generated a PDZome-binding profile of PBM-p38γ. Mean values of binding intensities (BI) ranked based on affinity are reported in Supplementary Material S1. The highest BI values indicate the PDZ domains recognized with the best affinities by the peptides used as bait. […] In recent work we established the PDZome-binding profile of PBM-HBc with 28 PDZ domains also identified as significant binders ([Genera et al., 2021]). Thus, this similar number of P ...

PTPN4-PDZ [8] = conditions: holdup, biotinylated 12-mer peptide; threshold 0.2; ref Genera et al., 2021; cited from earlier work
Text: as §3

PTPN3-PDZ [9] = biological target: T1, PTPN3-PDZ; conditions: holdup, biotinylated 12-mer peptide; threshold 0.2; ref Genera et al., 2021; cited from earlier work
Text: as §3

[10] = biological target: biotinylated peptide PBM-p38γ (12-mer, holdup bait); assay: holdup assay; biotinylated PBM peptide on resin in 96-well plates; bacterial extracts with overexpressed MBP-PDZ domains incubated, filtered, flowthrough read by microfluidic capillary electrophoresis; binding intensity (BI), threshold 0.2
[11] = biological target: PTPN3 PDZ domain (PTPN3-PDZ) (human, UniProt P26045-1 510-582, Limits taken from the PDB 6HKS/8OEP/8CQY entity (offset 483, N-terminal GAMGS tag remnant left out); the end at 597 agrees with the printed linker start at 598. 15N-labelled for NMR.); assay: NMR titration; 1H,15N HSQC chemical shift perturbations of 15N-labelled PTPN3-PDZ (117 μM); PBM-TACE added stepwise, PDZ:peptide 1:0 to 1:8.5, 11 points; 15°C; 50 mM Tris/HCl pH 7.5, 150 mM NaCl, 0.5 mM TCEP, 5% D2O; 1:1 model, 14 peaks; conditions: both partners purified

Chain of HPV16 E6 PBM (Human papillomavirus type 16) (P03126 whole entry, looked up): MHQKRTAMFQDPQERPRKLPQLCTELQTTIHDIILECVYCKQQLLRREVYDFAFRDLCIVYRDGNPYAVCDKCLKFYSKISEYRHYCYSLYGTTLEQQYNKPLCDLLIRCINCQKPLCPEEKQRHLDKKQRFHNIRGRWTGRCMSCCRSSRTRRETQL
Chain of HPV18 E6 PBM (Human papillomavirus type 18) (P06463 whole entry, looked up): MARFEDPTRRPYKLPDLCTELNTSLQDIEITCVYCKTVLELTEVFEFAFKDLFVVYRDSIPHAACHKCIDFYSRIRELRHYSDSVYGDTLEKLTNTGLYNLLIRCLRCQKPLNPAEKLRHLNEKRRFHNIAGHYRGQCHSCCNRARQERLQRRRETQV

In the case of PTPN3 PDZ (from UniProt P26045), the Kd [1] is given as 29 µM, the Kd [2] is given as 53 µM and the Kd (p38γ PBM (Homo sapiens)) is given as 26 µM. The Kd [3] was 37 µM.

With WARVS K E T P L [PBM-p38γ] the “binding intensity (BI)” value (PTPN3-PDZ [4]) was 0.52, the “number of PDZ domains with significant binding (BI greater than 0.2)” value [5] was 28 PDZ domains and the “binding intensity (BI)” value (PTPN4-PDZ [6]) was 0.60. The Km (PTPN3-Bidomain) was 1200 ± 300 µM and the “k cat of pNPP hydrolysis” value (PTPN3-Bidomain) was 1.7 ± 0.2 s^-1.

In the case of RSSRTR R E T Q L [PBM-16E6], the Km (PTPN3-Bidomain) is reported as 800 ± 100 µM and the “k cat of pNPP hydrolysis” value (PTPN3-Bidomain) is reported as 1.5 ± 0.1 s^-1.

In the case of RRRRSQS R E S Q C [PBM-HBc], the “number of PDZ domains identified as significant binders” value [7] is given as 28 PDZ domains, the “binding intensity (BI)” value (PTPN4-PDZ [8]) is given as 0.58 and the “binding intensity (BI)” value (PTPN3-PDZ [9]) is given as 0.45. For the same molecule, the Km (PTPN3-Bidomain) was 1300 ± 100 µM and the “k cat of pNPP hydrolysis” value (PTPN3-Bidomain) was 1.6 ± 0.1 s^-1.

Molecule “PTPN3-PDZ of the holdup PDZome library (MBP fusion) (from UniProt P26045-1 510-582) (domain or fragment)” has a binding intensity (BI) [10] of 0.52.

B1: PBM-TACE peptide (last C-terminal 12 residues of TACE) (peptide)
peptide: RQNRVDSKETEC
notes: last C-terminal 12 residues of TACE (tumor necrosis factor alpha-convertase, ADAM17), encompassing the PBM; also called PBM of the tumor necrosis factor-alpha converting enzyme; source: synthetic peptide (solid phase, Fmoc; Proteogenix)
Molecule B1 has a Kd [11] of 30 µM.

B2: PTPN4-PDZ of the holdup PDZome library (MBP fusion) (domain or fragment)
chain: LIRMKPDENGRFGFNVKGGYDQKMPVIVSRVAPGTPADLCVPRLNEGDQVVLINGRDIAEHTHDQVVLFIKAS
In the case of B2, the binding intensity (BI) [10] is reported as 0.6.
